From patent US9850283B2, “Macrocyclic inhibitors of the PD-1/PD-L1 and CD80(B7-1)/PD-L1 protein/protein interactions” (BRISTOL-MYERS SQUIBB COMPANY, priority 2013, dated 2017)
Read-outs that look alike come from different tables or passages of the source. Positions of bridges follow the written chain, without caps; N, C: chain ends. Non-standard residues stand in square brackets, D forms with d. Residues, ends and D or L forms follow the SMILES beside them. ξ: configuration not given here. NMeIle(3ξ) = CCC(C)[C@H](NC)C(=O)O; Hyp = O=C(O)[C@@H]1C[C@@H](O)CN1; NMeF = CN[C@@H](Cc1ccccc1)C(=O)O; NMeL = CN[C@@H](CC(C)C)C(=O)O; Thr(3ξ) = CC(O)[C@H](N)C(=O)O; NMeNle = CCCC[C@H](NC)C(=O)O; NMeA = CN[C@@H](C)C(=O)O; Dab = NCC[C@H](N)C(=O)O; Dap = NC[C@H](N)C(=O)O; Sar = CNCC(=O)O

Legend:
Human PD-L1/PD-1 = molecular target: T1, Human PD-L1/PD-1 (Homo sapiens, UniProt Q9NZQ7); assay: HTRF PD-1-Ig/PD-L1-His binding assay (human PD-L1)
T1 construct: made in house; host or cells: HEK293T
How it was run: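 Interaction of Fc-tagged soluble PD-1 with His-tagged soluble PD-L1 is monitored by time-resolved FRET. Donor is europium cryptate anti-Ig (1 nM final) and acceptor is APC anti-His (20 nM final). Assay buffer is dPBS with 0.1% BSA and 0.05% Tween-20.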

[1] = molecular target: T2, LK35.2-hPD-L1 cells / PE-labeled PD-1-Ig (Homo sapiens, UniProt Q9NZQ7); assay: LK35.2-hPD-L1 cell binding high-content screening assay; type: cell-based; conditions: cell binding assay, cell line not given
T2 construct: expressed in transfected cells; host or cells: LK35.2 mouse B cell line
How it was run: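 Mouse LK35.2 B cells stably overexpressing human PD-L1 were cultured overnight in RPMI with 10% FCS, then given compound and PE-labeled human PD-1-Ig (1 nM final) for 1 h at 37 °C. After three dPBS washes, bound fluorescence was quantified by high-content imaging.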

[2] = cluster symbol, read-out: HTRF IC50 cluster
[3] = cluster symbol, read-out: CBA IC50 cluster
[4] = value given instead of cluster, read-out: CBA IC50 value

T2 sequence (Q9NZQ7 19-290): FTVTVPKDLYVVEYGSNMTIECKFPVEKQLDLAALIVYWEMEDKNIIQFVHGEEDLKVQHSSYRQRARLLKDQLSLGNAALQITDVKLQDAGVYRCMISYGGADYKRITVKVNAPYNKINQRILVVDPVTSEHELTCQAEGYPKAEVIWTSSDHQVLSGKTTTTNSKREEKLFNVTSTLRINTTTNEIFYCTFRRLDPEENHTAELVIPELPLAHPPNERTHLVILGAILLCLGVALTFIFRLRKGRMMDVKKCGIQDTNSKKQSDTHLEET
T1 sequence (Q9NZQ7 with tags, fused parts or gaps): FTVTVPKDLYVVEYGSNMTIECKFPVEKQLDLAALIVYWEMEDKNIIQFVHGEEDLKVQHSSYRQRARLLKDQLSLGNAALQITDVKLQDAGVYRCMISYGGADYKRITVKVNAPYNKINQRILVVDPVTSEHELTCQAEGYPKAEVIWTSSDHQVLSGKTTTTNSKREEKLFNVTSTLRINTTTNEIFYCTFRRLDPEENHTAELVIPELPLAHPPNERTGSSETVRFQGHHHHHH

| IC50 (Human PD-L1/PD-1; [2]) | IC50 [1, 3] | IC50 [1, 4] | IC50 (Human PD-L1/PD-1; value given instead of cluster, read-out: HTRF IC50 value) | Compound |
| --- | --- | --- | --- | --- |
| 0.385 to 6.74 nM | 4.78 to 72.9 nM |  |  | CCCC[C@H]1C(=O)N(C)[C@@H](CC(C)C)C(=O)N[C@@H](CN)C(=O)N[C@H](C(=O)NCC(N)=O)CSCC(=O)N[C@@H](Cc2ccc(O)cc2)C(=O)N(C)[C@@H](C)C(=O)N[C@@H](CC(N)=O)C(=O)N2CCC[C@H]2C(=O)N[C@@H](Cc2c[nH]cn2)C(=O)N[C@@H](CCC(=O)O)C(=O)N2C[C@H](O)C[C@H]2C(=O)N[C@@H](Cc2c[nH]c3ccccc23)C(=O)N[C@@H](CCN)C(=O)N[C@@H](Cc2c[nH]c3ccccc23)C(=O)N1C [Example 5141] ({CH2CO}-Y[NMeA]NPHE[Hyp]W[Dab]W[NMeNle][NMeL][Dap]CG-NH2; thioether N-14) |
| 6.76 to 30.3 nM | 4.78 to 72.9 nM |  |  | CCCC[C@H]1C(=O)N(C)[C@@H](C(C)CC)C(=O)N[C@@H](CN)C(=O)N[C@H](C(=O)NCC(N)=O)CSCC(=O)N[C@@H](Cc2ccc(O)cc2)C(=O)N(C)[C@@H](C)C(=O)N[C@@H](CC(N)=O)C(=O)N2CCC[C@H]2C(=O)N[C@@H](Cc2c[nH]cn2)C(=O)N[C@@H](CCC(=O)O)C(=O)N2C[C@H](O)C[C@H]2C(=O)N[C@@H](Cc2c[nH]c3ccccc23)C(=O)N[C@@H](CCN)C(=O)N[C@@H](Cc2c[nH]c3ccccc23)C(=O)N1C (stereo partly shown) [Example 5142] ({CH2CO}-Y[NMeA]NPHE[Hyp]W[Dab]W[NMeNle][NMeIle(3ξ)][Dap]CG-NH2; thioether N-14) |
| 0.385 to 6.74 nM | 4.78 to 72.9 nM |  |  | CCCC[C@H]1C(=O)N[C@@H](CN)C(=O)N[C@H](C(=O)NCC(N)=O)CSCC(=O)N[C@@H](Cc2ccc(O)cc2)C(=O)N(C)[C@@H](C)C(=O)N[C@@H](CC(N)=O)C(=O)N2CCC[C@H]2C(=O)N[C@@H](Cc2c[nH]cn2)C(=O)N[C@@H](CCC(=O)O)C(=O)N2C[C@H](O)C[C@H]2C(=O)N[C@@H](Cc2c[nH]c3ccccc23)C(=O)N[C@@H](CCN)C(=O)N[C@@H](Cc2c[nH]c3ccccc23)C(=O)N(C)[C@@H](CC(C)C)C(=O)N1C [Example 5143] ({CH2CO}-Y[NMeA]NPHE[Hyp]W[Dab]W[NMeL][NMeNle][Dap]CG-NH2; thioether N-14) |
| 0.385 to 6.74 nM | 0.158 to 4.71 nM |  |  | CCCC[C@H]1C(=O)N[C@@H](CN)C(=O)N[C@H](C(=O)NCC(N)=O)CSCC(=O)N[C@@H](Cc2ccc(O)cc2)C(=O)N(C)[C@@H](C)C(=O)N[C@@H](CC(N)=O)C(=O)N2CCC[C@H]2C(=O)N[C@@H](Cc2c[nH]cn2)C(=O)N[C@@H](CCC(=O)O)C(=O)N2C[C@H](O)C[C@H]2C(=O)N[C@@H](Cc2c[nH]c3ccccc23)C(=O)N[C@@H](CCN)C(=O)N[C@@H](Cc2c[nH]c3ccccc23)C(=O)N(C)[C@@H](Cc2ccccc2)C(=O)N1C [Example 5144] ({CH2CO}-Y[NMeA]NPHE[Hyp]W[Dab]W[NMeF][NMeNle][Dap]CG-NH2; thioether N-14) |
| 6.76 to 30.3 nM | 4.78 to 72.9 nM |  |  | CCCC[C@H]1C(=O)N[C@@H](CN)C(=O)N[C@H](C(=O)NCC(N)=O)CSCC(=O)N[C@@H](Cc2ccc(O)cc2)C(=O)N(C)[C@@H](C)C(=O)N[C@@H](CC(N)=O)C(=O)N2CCC[C@H]2C(=O)N[C@@H](Cc2c[nH]cn2)C(=O)N[C@@H](CCC(=O)O)C(=O)N2C[C@H](O)C[C@H]2C(=O)N[C@@H](Cc2c[nH]c3ccccc23)C(=O)N[C@@H](CCN)C(=O)N[C@@H](Cc2c[nH]c3ccccc23)C(=O)N(C)[C@@H](C(C)CC)C(=O)N1C (stereo partly shown) [Example 5146] ({CH2CO}-Y[NMeA]NPHE[Hyp]W[Dab]W[NMeIle(3ξ)][NMeNle][Dap]CG-NH2; thioether N-14) |
| 0.385 to 6.74 nM | 4.78 to 72.9 nM |  |  | CCCC[C@H]1C(=O)N(C)[C@@H](Cc2ccccc2)C(=O)N[C@@H](CN)C(=O)N[C@H](C(=O)NCC(N)=O)CSCC(=O)N[C@@H](Cc2ccc(O)cc2)C(=O)N(C)[C@@H](C)C(=O)N[C@@H](CC(N)=O)C(=O)N2CCC[C@H]2C(=O)N[C@@H](Cc2c[nH]cn2)C(=O)N[C@@H](CCC(=O)O)C(=O)N2C[C@H](O)C[C@H]2C(=O)N[C@@H](Cc2c[nH]c3ccccc23)C(=O)N[C@@H](CCN)C(=O)N[C@@H](Cc2c[nH]c3ccccc23)C(=O)N1C [Example 5147] ({CH2CO}-Y[NMeA]NPHE[Hyp]W[Dab]W[NMeNle][NMeF][Dap]CG-NH2; thioether N-14) |
| 6.76 to 30.3 nM | 4.78 to 72.9 nM |  |  | CCCC[C@H]1C(=O)N(C)[C@@H](CCCC)C(=O)N[C@@H](CCCNC(=N)N)C(=O)N[C@H](C(=O)NCC(=O)NCC(N)=O)CSCC(=O)N[C@@H](Cc2ccccc2)C(=O)N(C)[C@@H](C)C(=O)N[C@@H](CC(N)=O)C(=O)N2CCC[C@H]2C(=O)N[C@@H](Cc2cnc[nH]2)C(=O)N[C@@H](CC(C)C)C(=O)N(C)CC(=O)N[C@@H](Cc2c[nH]c3ccccc23)C(=O)N[C@@H](CO)C(=O)N[C@@H](Cc2c[nH]c3ccccc23)C(=O)N1C [Example 6001] ({CH2CO}-F[NMeA]NPHL[Sar]WSW[NMeNle][NMeNle]RCGG-NH2; thioether N-14) |
| 6.76 to 30.3 nM |  | 72.9 nM |  | CCCC[C@H]1C(=O)N(C)[C@@H](CCCC)C(=O)N[C@@H](CCCNC(=N)N)C(=O)N[C@H](C(=O)NCC(N)=O)CSCC(=O)N[C@@H](Cc2ccccc2)C(=O)N(C)[C@@H](C)C(=O)N[C@@H](CC(N)=O)C(=O)N2CCC[C@H]2C(=O)N[C@@H](Cc2cnc[nH]2)C(=O)N[C@@H](CCCNC(=N)N)C(=O)N(C)CC(=O)N[C@@H](Cc2c[nH]c3ccccc23)C(=O)N[C@@H](CO)C(=O)N[C@@H](Cc2c[nH]c3ccccc23)C(=O)N1C [Example 6003] ({CH2CO}-F[NMeA]NPHR[Sar]WSW[NMeNle][NMeNle]RCG-NH2; thioether N-14) |
| 6.76 to 30.3 nM | 4.78 to 72.9 nM |  |  | CCCC[C@H]1C(=O)N(C)[C@@H](CCCC)C(=O)N[C@@H](CCCNC(=N)N)C(=O)N[C@H](C(=O)NCC(N)=O)CSCC(=O)N[C@@H](Cc2ccccc2)C(=O)N(C)[C@@H](C)C(=O)N[C@@H](CC(N)=O)C(=O)N2CCC[C@H]2C(=O)N[C@@H](Cc2cnc[nH]2)C(=O)N[C@@H](CCCCN)C(=O)N(C)CC(=O)N[C@@H](Cc2c[nH]c3ccccc23)C(=O)N[C@@H](CO)C(=O)N[C@@H](Cc2c[nH]c3ccccc23)C(=O)N1C [Example 6004] ({CH2CO}-F[NMeA]NPHK[Sar]WSW[NMeNle][NMeNle]RCG-NH2; thioether N-14) |
| 6.76 to 30.3 nM | 4.78 to 72.9 nM |  |  | CCCC[C@H]1C(=O)N(C)[C@@H](CCCC)C(=O)N[C@@H](CCCNC(=N)N)C(=O)N[C@H](C(=O)NCC(N)=O)CSCC(=O)N[C@@H](Cc2ccccc2)C(=O)N(C)[C@@H](C)C(=O)N[C@@H](CC(N)=O)C(=O)N2CCC[C@H]2C(=O)N[C@@H](Cc2cnc[nH]2)C(=O)N[C@@H](C(C)O)C(=O)N(C)CC(=O)N[C@@H](Cc2c[nH]c3ccccc23)C(=O)N[C@@H](CO)C(=O)N[C@@H](Cc2c[nH]c3ccccc23)C(=O)N1C (stereo partly shown) [Example 6005] ({CH2CO}-F[NMeA]NPH[Thr(3ξ)][Sar]WSW[NMeNle][NMeNle]RCG-NH2; thioether N-14) |
| 6.76 to 30.3 nM | 4.78 to 72.9 nM |  |  | CCCC[C@H]1C(=O)N(C)[C@@H](CCCC)C(=O)N[C@@H](CCCNC(=N)N)C(=O)N[C@H](C(=O)NCC(N)=O)CSCC(=O)N[C@@H](Cc2ccccc2)C(=O)N(C)[C@@H](C)C(=O)N[C@@H](CC(N)=O)C(=O)N2CCC[C@H]2C(=O)N[C@@H](Cc2cnc[nH]2)C(=O)N[C@@H](CCC(N)=O)C(=O)N(C)CC(=O)N[C@@H](Cc2c[nH]c3ccccc23)C(=O)N[C@@H](CO)C(=O)N[C@@H](Cc2c[nH]c3ccccc23)C(=O)N1C [Example 6006] ({CH2CO}-F[NMeA]NPHQ[Sar]WSW[NMeNle][NMeNle]RCG-NH2; thioether N-14) |
| 6.76 to 30.3 nM | 4.78 to 72.9 nM |  |  | CCCC[C@H]1C(=O)N(C)[C@@H](CCCC)C(=O)N[C@@H](CCCNC(=N)N)C(=O)N[C@H](C(=O)NCC(N)=O)CSCC(=O)N[C@@H](Cc2ccccc2)C(=O)N(C)[C@@H](C)C(=O)N[C@@H](CC(N)=O)C(=O)N2CCC[C@H]2C(=O)N[C@@H](Cc2cnc[nH]2)C(=O)N[C@@H](C(C)C)C(=O)N(C)CC(=O)N[C@@H](Cc2c[nH]c3ccccc23)C(=O)N[C@@H](CO)C(=O)N[C@@H](Cc2c[nH]c3ccccc23)C(=O)N1C [Example 6007] ({CH2CO}-F[NMeA]NPHV[Sar]WSW[NMeNle][NMeNle]RCG-NH2; thioether N-14) |
| > 30.5 nM | > 74.3 nM |  |  | CCCC[C@H]1C(=O)N(C)[C@@H](CCCC)C(=O)N[C@@H](CCCNC(=N)N)C(=O)N[C@H](C(=O)NCC(N)=O)CSCC(=O)N[C@@H](Cc2ccccc2)C(=O)N(C)[C@@H](C)C(=O)N[C@@H](CC(N)=O)C(=O)N2CCC[C@H]2C(=O)N[C@@H](Cc2cnc[nH]2)C(=O)N[C@@H](Cc2cnc[nH]2)C(=O)N(C)CC(=O)N[C@@H](Cc2c[nH]c3ccccc23)C(=O)N[C@@H](CO)C(=O)N[C@@H](Cc2c[nH]c3ccccc23)C(=O)N1C [Example 6008] ({CH2CO}-F[NMeA]NPHH[Sar]WSW[NMeNle][NMeNle]RCG-NH2; thioether N-14) |
|  |  | 158 nM | 69.7 nM | CCCC[C@H]1C(=O)N(C)[C@@H](CCCC)C(=O)N[C@@H](CCCNC(=N)N)C(=O)N[C@H](C(=O)NCC(N)=O)CSCC(=O)N[C@@H](Cc2ccccc2)C(=O)N(C)[C@@H](C)C(=O)N[C@@H](CC(N)=O)C(=O)N2CCC[C@H]2C(=O)N[C@@H](Cc2cnc[nH]2)C(=O)N[C@@H](Cc2c[nH]c3ccccc23)C(=O)N(C)CC(=O)N[C@@H](Cc2c[nH]c3ccccc23)C(=O)N[C@@H](CO)C(=O)N[C@@H](Cc2c[nH]c3ccccc23)C(=O)N1C [Example 6009] ({CH2CO}-F[NMeA]NPHW[Sar]WSW[NMeNle][NMeNle]RCG-NH2; thioether N-14) |
